For one data set, the system named is sST-2. Briefly: Serum sST-2 measured by EIA kit (PRESAGE sST-2 assay) in heart failure subjects treated 48 hours with serelaxin or placebo. It is filed as in vivo, human. Here is the method: Samples were collected from subjects enrolled in a multi-center, randomized, double-blind, placebo-controlled clinical trial, which was conducted to determine the safety and efficacy of serelaxin (recombinant human serelaxin) in subjects with heart failure, as described in Teerlink et al. (supra).
Serum was collected from 218 subjects (supra) for whom a baseline level of sST-2 as well as a post-serelaxin treatment level of sST-2 was determined. sST-2 was found at a lower limit of quantitation of 3.1 ng/ml and an upper limit of quantitation of 200 ng/ml. sST-2 was measured via the EIA kit (see Example 7 for more detail) and exact clinical measurements are summarized in Table 1 (see attached Table 1).
The difference between the placebo group and each of the serelaxin dose groups was statistically significant at 48 hours.
At baseline, geometric means across treatment groups ranged from 47 ng/ml to 60 ng/ml, i.e., 55 percent of the treated subjects had sST-2 concentrations that exceeded the normal range of 33.5 ng/ml in females and 49.3 ng/ml in males. […] This established that serelaxin transiently upregulates sST-2.
FIG. 3 depicts a between-treatment analysis of sST-2 by visit, comparing a change from baseline in sST-2 geometric means between the serelaxin groups compared to the placebo group at 3 time points. […] The differences subsided so that by Day 5, changes from baseline in 3 of the 4 serelaxin groups, as well as the pooled serelaxin group, were no different than change from baseline in the placebo group. By Day 14, the changes from baseline in all of the serelaxin groups were not different from change in the placebo group. As above, this establishes that serelaxin transiently up-regulates sST-2.
sST-2 levels were measured with the EIA Test Kit & PRESAGE sST-2 Assay (from Critical Diagnostics, NY) according to the manufacturer's instructions. Alternatively, other assays could be used such as the QUANTIKINE ST2/IL-1 R4 Immunoassay (from R&D Systems, Inc., MN).
The EIA test kit is a quantitative sandwich monoclonal ELISA in a 96 well plate format for measurement of sST-2 in serum or plasma. Diluted serum from 218 subjects was loaded into the appropriate wells in the anti-ST-2 antibody coated plate and incubated for the prescribed time. Following a series of steps, where reagents were washed from the plate, and additional reagents were added and subsequently washed out, the analyte sST-2 was detected by addition of a colorimetric reagent. The resulting signal was measured spectroscopically at 450 nm. The assay was conducted according to the parameters described in the assay description of the EIA test kit with all prescribed reagents and materials.

The conditions of data set [1]: wide range of doses; up to six months of continuous treatment; cited from earlier work.

Results on 1 substance are retold here after patent publication US20170014409A1, “TREATING INFLAMMATION USING SERELAXIN” (priority 2012, published 2017).

On to serelaxin, for which the “change from baseline in sST-2 concentrations at 48 hours” value in the data set with sST-2 (48 hours of treatment, all serelaxin dose groups, placebo decreased 30%, p<0.05 for all serelaxin groups vs. placebo) is given as “increase from baseline”. The “change from baseline in sST-2 geometric means vs. placebo group at 48 hours” value in the data set on sST-2 (48 hours, all serelaxin groups and pooled serelaxin group, between-treatment analysis (FIG. 3)) is listed as “significantly different”. Moreover, in the data set on sST-2 (Day 5, 3 of the 4 serelaxin groups and pooled serelaxin group), the “change from baseline in sST-2 geometric means vs. placebo group at Day 5” value is recorded as “no different”. Besides, in the data set with sST-2 (Day 14, all serelaxin groups), the “change from baseline in sST-2 geometric means vs. placebo group at Day 14” value was “not different”. The “safety in nonclinical toxicology studies” value in data set [1] was “safe”.
